According to PubChem BioAssay AID1918952 (Molecular Pharmacology Branch, DTP, NCI, 2023):
pIC50: −log10 of the molar value.

System: LG0703-F948-PDC complex spheroid viability
Assay: Anticancer human tumor LG0703-F948-PDC patient-derived lung adenocarcinoma cell line growth inhibition
Conditions: for pIC50: curve of first compound; for viability, T/C: stronger effect = lower value
In short: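 Multicellular complex spheroids of tumor cells with human endothelial cells (HUVEC) and mesenchymal stem cells; the LSD1 inhibitor iadademstat was combined with standard-of-care or investigational agents. Top concentration at or near clinical Cmax, half-log dilutions; final DMSO ≤0.25%.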

[1] = second compound 0.1 µM, first compound 0.00316 µM
[2] = second compound 0.1 µM, first compound 0.01 µM
[3] = second compound 0.1 µM, first compound 0.0316 µM
[4] = second compound 0.1 µM, first compound 0.1 µM
[5] = second compound 0.1 µM, first compound 0.316 µM
[6] = second compound 0.1 µM, first compound 1 µM
[7] = second compound 0.316 µM, first compound 0.00316 µM
[8] = second compound 0.316 µM, first compound 0.01 µM
[9] = second compound 0.316 µM, first compound 0.0316 µM
[10] = second compound 0.316 µM, first compound 0.1 µM
[11] = second compound 0.316 µM, first compound 0.316 µM
[12] = second compound 0.316 µM, first compound 1 µM
[13] = second compound 1 µM, first compound 0.00316 µM
[14] = second compound 1 µM, first compound 0.01 µM
[15] = second compound 1 µM, first compound 0.0316 µM
[16] = second compound 1 µM, first compound 0.1 µM
[17] = second compound 1 µM, first compound 0.316 µM
[18] = second compound 1 µM, first compound 1 µM
[19] = second compound 3.16 µM, first compound 0.00316 µM
[20] = second compound 3.16 µM, first compound 0.01 µM
[21] = second compound 3.16 µM, first compound 0.0316 µM
[22] = second compound 3.16 µM, first compound 0.1 µM
[23] = second compound 3.16 µM, first compound 0.316 µM
[24] = second compound 3.16 µM, first compound 1 µM
[25] = second compound 10 µM, first compound 0.00316 µM
[26] = second compound 10 µM, first compound 0.01 µM
[27] = second compound 10 µM, first compound 0.0316 µM
[28] = second compound 10 µM, first compound 0.1 µM
[29] = second compound 10 µM, first compound 0.316 µM
[30] = second compound 10 µM, first compound 1 µM
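Also: spheroids exposed to agents for seven days before readout.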
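For viability, T/C in this document: 100% = DMSO vehicle control wells as normalization base.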

For `O=C(C=Cn1cnc(-c2cc(C(F)(F)F)cc(C(F)(F)F)c2)n1)NNc1cnccn1` + NC1CC1c1ccc(-c2cccc(O)c2)cc1, the pIC50 (second compound 0.1 µM) was 7.92, the pIC50 (second compound 0.316 µM) was 7.74 and the pIC50 (second compound 1 µM) was 7.59. It also gave a pIC50 (second compound 3.16 µM) of 7.16, a pIC50 (second compound 10 µM) of 6.94 and a viability, T/C [1] of 62.2%. For the same compound, the viability, T/C [2] was 54.6%, the viability, T/C [3] was 38.8% and the viability, T/C [4] was 34.7%. It also gave a viability, T/C [5] of 31.8%, a viability, T/C [6] of 25.4% and a viability, T/C [7] of 67.6%. The viability, T/C [8] was 58.9%, the viability, T/C [9] was 40% and the viability, T/C [10] was 36.2%. For the same compound, the viability, T/C [11] was 26%, the viability, T/C [12] was 24.6% and the viability, T/C [13] was 70.4%. The viability, T/C [14] was 58.8%, the viability, T/C [15] was 47% and the viability, T/C [16] was 39.5%. For the same compound, the viability, T/C [17] was 29.5%, the viability, T/C [18] was 22.6% and the viability, T/C [19] was 70.4%. It also gave a viability, T/C [20] of 67.7%, a viability, T/C [21] of 64% and a viability, T/C [22] of 43.6%. It also gave a viability, T/C [23] of 22.4%, a viability, T/C [24] of 22% and a viability, T/C [25] of 75.8%. The viability, T/C [26] was 73.1%, the viability, T/C [27] was 64.2% and the viability, T/C [28] was 54.9%. The viability, T/C [29] was 31.7% and the viability, T/C [30] was 23.7%.

`COc1cc(C2c3cc4c(cc3C(OC3OC5COC(C)OC5C(O)C3O)C3COC(=O)C23)OCO4)cc(OC)c1O` (stereo not given) + NC1CCC(NC2CC2c2ccccc2)CC1 was tested, and the pIC50 (second compound 0.1 µM) was < 5.52, the pIC50 (second compound 0.316 µM) was < 5.52 and the pIC50 (second compound 1 µM) was < 5.52. For the same compound, the pIC50 (second compound 3.16 µM) was < 5.52, the pIC50 (second compound 10 µM) was < 5.52 and the viability, T/C (second compound 0.1 µM, first compound 0.00949 µM) was 99.9%. The viability, T/C (second compound 0.1 µM, first compound 0.03 µM) was 104%, the viability, T/C (second compound 0.1 µM, first compound 0.0949 µM) was 94.8% and the viability, T/C (second compound 0.1 µM, first compound 0.3 µM) was 87.6%. For the same compound, the viability, T/C (second compound 0.1 µM, first compound 0.949 µM) was 72.2%, the viability, T/C (second compound 0.1 µM, first compound 3 µM) was 58.2% and the viability, T/C (second compound 0.316 µM, first compound 0.00949 µM) was 106%. For the same compound, the viability, T/C (second compound 0.316 µM, first compound 0.03 µM) was 108%, the viability, T/C (second compound 0.316 µM, first compound 0.0949 µM) was 90.7% and the viability, T/C (second compound 0.316 µM, first compound 0.3 µM) was 87.6%. For the same compound, the viability, T/C (second compound 0.316 µM, first compound 0.949 µM) was 77.8%, the viability, T/C (second compound 0.316 µM, first compound 3 µM) was 65% and the viability, T/C (second compound 1 µM, first compound 0.00949 µM) was 113%. It also gave a viability, T/C (second compound 1 µM, first compound 0.03 µM) of 127%, a viability, T/C (second compound 1 µM, first compound 0.0949 µM) of 108% and a viability, T/C (second compound 1 µM, first compound 0.3 µM) of 99.3%. For the same compound, the viability, T/C (second compound 1 µM, first compound 0.949 µM) was 91.4%, the viability, T/C (second compound 1 µM, first compound 3 µM) was 73.7% and the viability, T/C (second compound 3.16 µM, first compound 0.00949 µM) was 120%. For the same compound, the viability, T/C (second compound 3.16 µM, first compound 0.03 µM) was 105%, the viability, T/C (second compound 3.16 µM, first compound 0.0949 µM) was 112% and the viability, T/C (second compound 3.16 µM, first compound 0.3 µM) was 108%. It also gave a viability, T/C (second compound 3.16 µM, first compound 0.949 µM) of 98.5%, a viability, T/C (second compound 3.16 µM, first compound 3 µM) of 86.8% and a viability, T/C (second compound 10 µM, first compound 0.00949 µM) of 104%. It also gave a viability, T/C (second compound 10 µM, first compound 0.03 µM) of 115%, a viability, T/C (second compound 10 µM, first compound 0.0949 µM) of 118% and a viability, T/C (second compound 10 µM, first compound 0.3 µM) of 86.2%. For the same compound, the viability, T/C (second compound 10 µM, first compound 0.949 µM) was 97.5% and the viability, T/C (second compound 10 µM, first compound 3 µM) was 81.4%.

In the case of `Nc1ncn(C2CC(O)C(CO)O2)c(=O)n1` (stereo not given) + NC1CCC(NC2CC2c2ccccc2)CC1, the pIC50 (second compound 0.1 µM) was < 6.00, the pIC50 (second compound 0.316 µM) was < 6.00 and the pIC50 (second compound 1 µM) was < 6.00. The pIC50 (second compound 3.16 µM) was < 6.00, the pIC50 (second compound 10 µM) was < 6.00 and the viability, T/C [1] was 101%. The viability, T/C [2] was 102%, the viability, T/C [3] was 98% and the viability, T/C [4] was 96.3%. For the same compound, the viability, T/C [5] was 95.4%, the viability, T/C [6] was 81.9% and the viability, T/C [7] was 114%. For the same compound, the viability, T/C [8] was 118%, the viability, T/C [9] was 110% and the viability, T/C [10] was 98.7%. For the same compound, the viability, T/C [11] was 102%, the viability, T/C [12] was 98.5% and the viability, T/C [13] was 107%. It also gave a viability, T/C [14] of 126%, a viability, T/C [15] of 130% and a viability, T/C [16] of 106%. The viability, T/C [17] was 97%, the viability, T/C [18] was 112% and the viability, T/C [19] was 122%. For the same compound, the viability, T/C [20] was 121%, the viability, T/C [21] was 117% and the viability, T/C [22] was 111%. The viability, T/C [23] was 131%, the viability, T/C [24] was 101% and the viability, T/C [25] was 122%. For the same compound, the viability, T/C [26] was 141%, the viability, T/C [27] was 111% and the viability, T/C [28] was 114%. The viability, T/C [29] was 113% and the viability, T/C [30] was 122%.
